Laboratory results taken from patent US20110281911A1, “NOVEL FORMS OF EPERISONE” (Bionevia Pharmaceuticals, Inc., priority 2008, published 2011).
Counter-ions that a name gives are not always drawn.

Assay: Solubility in acetonitrile, calculated based on the total solvent used to give a solution
Assay type: physicochemical
Details: organic solvent or mixture, thermodynamic from solid

Compound: CCc1ccc(C(=O)C(C)CN2CCCCC2)cc1 (single isomer, unassigned) [substantially enantiopure crystalline eperisone hydrochloride, eperisone hydrochloride]
- solubility: > 11 mg/mL
